Patent publication US8722714B2, “Oxazolidine derivatives as NMDA antagonists” (The Honk Kong University of Science and Technology, priority 2008, dated 2014)

Key:
[1] = system: scopolamine-induced memory deficit mice; test: Morris Water Maze in scopolamine-induced memory deficit mice; type: in vivo; details: scopolamine 4 mg/kg i.p.
Description: 6-8 week old outbred male I.C.R. mice, weighing 25-35g were housed two per cage in a climatically controlled animal room (23-25° C.) under 12 hours light/dark cycling. The animals were allowed access to water and food ad lib. The mice used for the experiment were brought to particular laboratory conditions for two days. All the experiments were conducted between 14:00 and 18:00. Scopolamine hydrobromide (Sigma, USA) was dissolved in saline in 4 mg/kg and administered in a volume of 10 ml/kg body weight. The experimental mice were randomly assigned into 3 groups, each consisting of 12 mice with similar mean body weights and age. Test sample was dissolved in physiological saline before the experiments each day. Scopolamine was administered through intraperitoneal injection (i.p.) at 30 minutes before the swimming tasks to induce memory deficit. Oral administrations (p.o.) of the test compound, or saline (0.9%) was started at the first day of the task and administrated according to a volume of 10 ml/kg body weight. Oral drug administrations were 45 minutes before the swimming tasks and conducted daily for 4 consecutive days until the end of the task.
Each mouse was subjected to 4 trials per day for 4 consecutive days. […] The student t-test with repeated measures was used to analyze latency values, and calculated as the mean latency periods for each mouse. Data are expressed as means±S.E.M, *=P<0.05 and **=P<0.005 versus scopolamine.
Scopolamine (SCOP; 4 mg/kg) was first administered intra-peritoneally to mice to impair their memories. […] On each day, the time taken for the mice to detect the hidden platform in the water maze was measured, in seconds. Measurements were calculated as the mean latency periods for each mouse; n=24. Data are expressed as mean±s.e.m. and compared to Saline/SCOP group. […]
In FIG. 13, mice were first orally administered LC-24 (30 mg/kg), scopolamine (4 mg/kg) was i.p. administered to mice 15 min to impair their memories. […] On each day, the time taken for the mice to detect the hidden platform in the water maze was measured, in seconds. […]

[2] = system: mice; test: Forced Swim Test (FST); type: in vivo; details: 100 mg/kg p.o., 7 times, last 4 min of 6-min swim
Text: Outbred male I.C.R. mice of ˜3-4 weeks old weighing 20-22 g were used. The mice had free access to food (rodent chow #2053, 5g/mouse/day) and water. The cage floors were covered with wood shavings and the mice were handled once per week while the cages were cleaned. […] Number of mice per group was ˜10-15. To facilitate adaptation to novel surroundings, mice were transported to the testing area from the core animal facility at least one week prior to testing. All experimental sessions were conducted between 0900 and 1200 hours. Briefly, mice were put into a pyrex cylinder of 30 cm in height and 11.5 cm in diameter with water (10 cm) to a level that they would not be able to touch the bottom. Mice were put into the cylinder for twice, first day 15 min and second day 6 min. The duration of immobility (within the last 4 min in the 6-min time frame) of mice in FST were recorded using Etho-Vision® XT Mobility (Noldus software). The parameters to score the behavior of animals in the FST were fine-tuned by visual inspection. […]
The Forced Swim Test (FST) is a popular animal model for assessing depression. […] The time that the test animal spends in an immobile state in the second trial is measured (immobility time). […]
The task was then performed twice and the duration of time the mice spent in an immobile state during the second trial was measured. […]

[3] = system: ERK; test: Western blot detection of ERK phosphorylation in rat cortical neurons; type: cell-based; details: 500 μM; rat cortical neurons 11 DIV; vs DMSO control
Description: Embryonic day 18 Sprague Dawley rat pups were decapitated, their brains removed, and the cortices were isolated. Tissues were triturated and isolated neurons were plated onto 60 mm plate and cultured with Neurobasal medium supplemented with 2% B27 (Invitrogen). Experiments were performed after 10-12 days in vitro (DIV). Cultured cells were stimulated with a test compound or vehicle control (DMSO) for different time intervals and then lysed with RIPA buffer including protease inhibitors. Cell lysates were stored at −80° C. before use. Before being loaded, the lysates were heated to 95° C. for 10 min, vortexed and centrifuged for 7 min at 15,000×g. Supernatants were electrophoresed on 10% SDS-polyacrylamide gel and transblotted to nitrocellulose membrane. The membranes were washed with 5% (w/v) powdered milk dissolved in PBS with 0.1% Triton X-100, followed by incubation at 4° C. overnight with rabbit polyclonal against phospho-ERK or phosphor-AKT (1:1000, Cell Signaling Technology). Next, the membranes were washed and incubated with horseradish peroxidase (HRP)-conjugated secondary antibodies. The signal was visualized using ECL Western Blotting Kit. Blots were stripped and probed for total ERK or AKT expression. […]
Western blot analysis was performed on the total cell lysates. Antibodies against phospho-ERK1/2 and phospho-AKT were used and detected with HRP conjugated secondary antibodies. […]

`CC[C@H]1N[C@@H](Cc2ccccc2)C(CC)(CC)O1` [LC-24] was tested, and the escape latency ([1]; 30 mg/kg oral, 4 days) was “reduced the increased escape latency induced by scopolamine”.

In the case of `CCCC1(CCC)O[C@@H](CC)N[C@H]1CC(C)C` [LC-06], the escape latency ([1]; 100 mg/kg oral, 4 days) is reported as “reversed the increased escape latency induced by scopolamine” and the “duration of immobility (immobility time)” value [2] is reported as “Reduces the Duration of Immobility”.

In the case of `CC[C@H]1N[C@@H](CC(C)C)C(CC)(CC)O1` [LC-02], the “phosphorylation of ERK” value [3] is reported as “induced phosphorylation of ERK after a 15-min treatment period and persisted to 60 min” and the escape latency ([1]; 30 or 100 mg/kg oral) is reported as “decreases escape latencies”.
